The term IC50 denotes the concentration that inhibits the measured activity by half. A lower IC50 goes with greater potency.

Results on eleven compounds are retold here after BindingDB's records for doi:10.1016/S0960-894X(97)00311-9 (n/a, 1997).

The nature of this assay: Inhibition of human platelet aggregation.

As to `CC(C)[C@H](NC(=O)[C@H](CC(=O)O)NC(=O)CNC(=O)C=Cc1ccc(N=C(N)N)cc1)C(=O)O` [(S)-2-((S)-3-Carboxy-2-{2-[(E)-3-(4-guanidino-phenyl)-acryloylamino]-acetylamino}-propionylamino)-3-methyl-butyric acid], 6600 nM corresponded to half-maximal inhibition (IC50). As for `CC(C)[C@H](NC(=O)[C@H](CC(=O)O)NC(=O)CCNC(=O)C=Cc1ccc(N=C(N)N)cc1)C(=O)O` [(S)-2-((S)-3-Carboxy-2-{3-[(E)-3-(4-guanidino-phenyl)-acryloylamino]-propionylamino}-propionylamino)-3-methyl-butyric acid], the figure is 2000 nM. `CC(C)[C@H](NC(=O)[C@H](CC(=O)O)NC(=O)C[C@H]1CCCN1C(=O)C=Cc1ccc(N=C(N)N)cc1)C(=O)O` [(S)-2-[(S)-3-Carboxy-2-(2-{(R)-1-[(E)-3-(4-guanidino-phenyl)-acryloyl]-pyrrolidin-2-yl}-acetylamino)-propionylamino]-3-methyl-butyric acid] came in with an IC50 of 25000 nM. As for `CC(C)[C@H](NC(=O)[C@H](CC(=O)O)NC(=O)C[C@@H]1CCCCN1C(=O)C=Cc1ccc(N=C(N)N)cc1)C(=O)O` [(S)-2-[(S)-3-Carboxy-2-(2-{(S)-1-[(E)-3-(4-guanidino-phenyl)-acryloyl]-piperidin-2-yl}-acetylamino)-propionylamino]-3-methyl-butyric acid], the figure is 1600 nM; as for `CC(C)[C@H](NC(=O)[C@H](CC(=O)O)NC(=O)C[C@@H]1CCCN1C(=O)C=Cc1ccc(N=C(N)N)cc1)C(=O)O` [(S)-2-[(S)-3-Carboxy-2-(2-{(S)-1-[(E)-3-(4-guanidino-phenyl)-acryloyl]-pyrrolidin-2-yl}-acetylamino)-propionylamino]-3-methyl-butyric acid], 96 nM; as for `CC(C)[C@H](NC(=O)[C@H](CC(=O)O)NC(=O)CCN(C)C(=O)C=Cc1ccc(N=C(N)N)cc1)C(=O)O` [(S)-2-[(S)-3-Carboxy-2-(3-{[(E)-3-(4-guanidino-phenyl)-acryloyl]-methyl-amino}-propionylamino)-propionylamino]-3-methyl-butyric acid], 500 nM. On to `CCN(CCC(=O)N[C@@H](CC(=O)O)C(=O)N[C@H](C(=O)O)C(C)C)C(=O)C=Cc1ccc(N=C(N)N)cc1` [(S)-2-[(S)-3-Carboxy-2-(3-{ethyl-[(E)-3-(4-guanidino-phenyl)-acryloyl]-amino}-propionylamino)-propionylamino]-3-methyl-butyric acid], for which the IC50 turned out to be 410 nM.

`CC(C)[C@H](NC(=O)[C@H](CC(=O)O)NC(=O)[C@@H]1CCCN(C(=O)C=Cc2ccc(N=C(N)N)cc2)C1)C(=O)O` [(S)-2-[(S)-3-Carboxy-2-({(R)-1-[(E)-3-(4-guanidino-phenyl)-acryloyl]-piperidine-3-carbonyl}-amino)-propionylamino]-3-methyl-butyric acid] registered a half-maximal inhibitory concentration (IC50) of 180 nM.

In turn, `CC(C)[C@H](NC(=O)[C@H](CC(=O)O)NC(=O)[C@@H]1CCN(C(=O)C=Cc2ccc(N=C(N)N)cc2)C1)C(=O)O` [(S)-2-[(S)-3-Carboxy-2-({(R)-1-[(E)-3-(4-guanidino-phenyl)-acryloyl]-pyrrolidine-3-carbonyl}-amino)-propionylamino]-3-methyl-butyric acid] showed an IC50 of 65 nM.

Regarding `CC(C)[C@H](NC(=O)[C@H](CC(=O)O)NC(=O)[C@H]1CCCN(C(=O)C=Cc2ccc(N=C(N)N)cc2)C1)C(=O)O` [(S)-2-[(S)-3-Carboxy-2-({(S)-1-[(E)-3-(4-guanidino-phenyl)-acryloyl]-piperidine-3-carbonyl}-amino)-propionylamino]-3-methyl-butyric acid], inhibition was half-maximal at 620 nM (IC50).

`CC(C)[C@H](NC(=O)[C@H](CC(=O)O)NC(=O)[C@H]1CCN(C(=O)C=Cc2ccc(N=C(N)N)cc2)C1)C(=O)O` [(S)-2-[(S)-3-Carboxy-2-({(S)-1-[(E)-3-(4-guanidino-phenyl)-acryloyl]-pyrrolidine-3-carbonyl}-amino)-propionylamino]-3-methyl-butyric acid]: inhibition was half-maximal at 3300 nM (IC50).
